# Results from article PMC12256496, “An advancement in developmental and reproductive toxicity (DART) risk assessment: evaluation of a bioactivity and exposure-based NAM toolbox” (Frontiers in Toxicology, 2025).
# Several values for one entry are separate records, joined by “and”; a condition that tells them apart may be missing. Equal values may be shown once. Read-outs that look alike come from different tables or passages of the source.
# Tests used:
# [1] = Human in vivo PK data: concentration-dose ratio (CDR) and toxicokinetic variability factor (TKVF); parameters: 95% percentile (Conc-dose-ratio): unit not given here;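 further: Literature-pooled human in vivo PK data, plasma, serum or cord blood concentrations per daily dose, weighted by study population size across non-pregnant, pregnant and fetal groups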
# [2] = system: human developmental and reproductive toxicity; conditions: cited from earlier work
# [3] = system: developmental or reproductive toxicity in animal or human; conditions: cited from earlier work
# [4] = renal clearance, Fup*GFR (PBK parameter); conditions: method Fup*GFR
# [5] = cited from earlier work; for ADI: ref FSCJ, EFSA, SCF, JMPR as named in the cell; for MoS: existent consumer risk assessment for the cosmetic use scenario, ref SCCS / SCCP / SCCNFP
# [6] = Bioactivity exposure ratio (BER): minimum platform PoD / estimated Cmax; conditions: low-risk exposure scenario of the compound
# [7] = skin absorption / systemic exposure dose for dermal exposure (PBK parameter); format: in vitro ADME
# Source text: Where a SED (systemic exposure dose) was reported systemic exposure from a dermal administration was modelled as a slow intravenous infusion of the SED, which corrects the applied dose for the rate of skin absorption (%). Where no SED was available dermal exposure route was predicted by the dermal module in GastroPlus® administration.
# [8] = Solubility pH 7, cited from earlier work
# [9] = ref Supplementary Data Sheet 1, cited from earlier work
# rats = conditions: ref Supplementary Data Sheet 1, cited from earlier work
# [10] = hepatic intrinsic clearance, CLint (PBK parameter); format: in vitro ADME
# [11] = evidence of developmental or reproductive toxicity in animal or human, irrespective of exposure/dose, ref Supplementary Data Sheet 1
# [12] = Non-Pregnant population (reference)
# [13] = Non-Pregnant population, TKVF95 = p95 / weighted mean concentration-dose ratio
# [14] = Non-Pregnant, combined (oral+IV)
# [15] = Pregnant population (reference)
# [16] = Pregnant population, TKVF95 = p95 / weighted mean concentration-dose ratio
# [17] = two multigeneration rat studies
# [18] = Foetus, oral, combined (tretinoin, retinyl palmitate, dietary retinoids)
# [19] = Non-Pregnant, dermal, formulation radiolabelled tretinoin
# [20] = Non-Pregnant, oral, combined (tretinoin, retinyl palmitate, dietary retinoids)
# [21] = Pregnant, oral, combined (tretinoin, retinyl palmitate, dietary retinoids)
smiles,measurement,setting,value
Cn1c(=O)c2[nH]cnc2n(C)c1=O [Theophylline],TKVF,"[1]; female, human, in vivo",1.73
"CC/C(=C(/CC)c1ccc(O)cc1)c1ccc(O)cc1 [Diethylstilbestrol (DES), Diethylstilbestrol]",Exposure risk (DART risk classification),"[2]; Pharmaceutical, 0.5 mg/daily, oral, ref Supplementary Data Sheet 1",High Risk
same,DART Hazard Call,[3]; [11],Toxic
"CCCCCCC(O)CO (stereo not drawn) [1,2-Octanediol]",Exposure risk (DART risk classification),"[2]; Cosmetic, 5% in body lotion, dermal, ref Supplementary Data Sheet 1",Low Risk
same,DART Hazard Call,[3]; [11],Non Toxic
same,Renal Clearance,[4],5.129 L/h
C[C@@H]1C[C@H]2[C@@H]3CCC4=CC(=O)C=C[C@]4(C)[C@@]3(F)[C@@H](O)C[C@]2(C)[C@@]1(O)C(=O)CO [Dexamethasone],DART Hazard Call,[3]; [11],Toxic
same,CDR fold difference to non-pregnant,"[1]; female, human, in vivo",1.50
same,TKVF,"[1]; female, human, in vivo",2.51
same,CDR fold difference to non-pregnant,"[1]; human, in vivo",1.00
same,TKVF,"[1]; human, in vivo",1.99
Cn1c(=O)c2c(ncn2C)n(C)c1=O [Caffeine],TKVF,"[1]; female, human, in vivo",2.42
same,TKVF,"[1]; female, human, in vivo, po",2.42
same,TKVF,"[1]; human, in vivo, po",2.84
CCN(CC)C(=O)c1cccc(C)c1 [DEET],Exposure risk (DART risk classification),[2],Low Risk
same,DART Hazard Call,[3],Uncertain
same,95% percentile (Conc-dose-ratio),[1]; in vivo,0.0013
same,Mean Conc-dose -ratio,[1]; in vivo,0.00066 uM/(mg/day]
same,TKVF,[1]; in vivo,1.97
O=P1(N(CCCl)CCCl)NCCCO1 (stereo not drawn) [Cyclophosphamide],Exposure risk (DART risk classification),"[2]; Pharmaceutical, 60 mg/daily, oral, ref Supplementary Data Sheet 1",High Risk
same,DART Hazard Call,[3]; [11],Toxic
same,CDR fold difference to non-pregnant,[1]; [12],1.00
same,TKVF,[1]; [13],3.15
same,95% percentile (Conc-dose-ratio),[1]; [14],0.09
same,Fold Difference to non-pregnant,[1]; [14],1.00
same,Mean Conc-dose -ratio,[1]; [14],0.030 uM/(mg/day]
same,TKVF,[1]; [14],3.15
same,CDR fold difference to non-pregnant,[1]; Pregnant population,2.85
same,Fold Difference to non-pregnant,"[1]; Pregnant, IV",2.85
same,Mean Conc-dose -ratio,"[1]; Pregnant, IV",0.084 uM/(mg/day]
C[n+]1ccc(-c2cc[n+](C)cc2)cc1 [Paraquat],ADI,[5],ADI set by FSCJ (0.0045 mg/kg/day)
same,DART Hazard Call,[3]; [11],Non Toxic
same,CDR fold difference to non-pregnant,[1]; Fetus population,0.06
same,CDR fold difference to pregnant,[1]; Fetus population,1.15
same,Fold Difference to non-pregnant,"[1]; Foetus, oral",0.056
same,Fold Difference to pregnant,"[1]; Foetus, oral",1.15
same,Mean Conc-dose -ratio,"[1]; Foetus, oral",0.000247 uM/(mg/day]
same,CDR fold difference to non-pregnant,[1]; [12],1.00
same,TKVF,[1]; [13],3.16
same,95% percentile (Conc-dose-ratio),"[1]; Non-Pregnant, oral",0.014
same,Fold Difference to non-pregnant,"[1]; Non-Pregnant, oral",1.00
same,Mean Conc-dose -ratio,"[1]; Non-Pregnant, oral",0.0044 uM/(mg/day]
same,TKVF,"[1]; Non-Pregnant, oral",3.16
same,CDR fold difference to non-pregnant,[1]; Pregnant population,0.05
same,CDR fold difference to pregnant,[1]; [15],1.00
same,Fold Difference to non-pregnant,"[1]; Pregnant, oral",0.05
same,Fold Difference to pregnant,"[1]; Pregnant, oral",1.00
same,Mean Conc-dose -ratio,"[1]; Pregnant, oral",0.000214 uM/(mg/day]
CC(C)(CO)C(O)C(=O)NCCCO (stereo not drawn) [Panthenol],BER,[6],< 1
same,Diffusivity Stratum Corneum,[7]; optimised based on [12],2.29E-13 cm^2/s
same,Partition Coefficient Stratum Corneum/Water,[7]; optimised based on [12],1.96
same,Renal Clearance,[4],6.348 L/h
C[C@H]1O[C@@H](O[C@H]2[C@@H](O)C[C@H](O[C@H]3[C@@H](O)C[C@H](O[C@H]4CC[C@@]5(C)[C@H](CC[C@@H]6[C@@H]5C[C@@H](O)[C@]5(C)[C@@H](C7=CC(=O)OC7)CC[C@]65O)C4)O[C@@H]3C)O[C@@H]2C)C[C@H](O)[C@@H]1O [Digoxin],BER,[6],< 1
same,TKVF,"[1]; female, human, in vivo",2.35
same,TKVF,"[1]; female, human, in vivo, po",2.35
O=S(=O)(O)NC1CCCCC1 [Cyclamate],ADI,[5],ADI set by SCF (7mg/kg/day)
same,Exposure risk (DART risk classification),"[2]; Dietary, 420 mg/daily, oral, ref Supplementary Data Sheet 1",Low Risk
same,Aqueous Solubility,"[8]; median, ref [5],[8]",84.5 mg/mL
C[C@@H]1CCO[C@H]2Cn3cc(C(=O)NCc4ccc(F)cc4F)c(=O)c(O)c3C(=O)N12 [Dolutegravir],Exposure risk (DART risk classification),"[2]; Pharmaceutical, 50 mg/daily, oral, ref Supplementary Data Sheet 1",High Risk
same,DART Hazard Call,[3]; [11],Toxic
same,CDR fold difference to non-pregnant,[1]; Fetus population,0.46
same,CDR fold difference to pregnant,[1]; Fetus population,0.65
same,TKVF,"[1]; Fetus population, TKVF95 = p95 / weighted mean concentration-dose ratio",1.40
same,95% percentile (Conc-dose-ratio),"[1]; Foetus, oral",0.11
same,Fold Difference to non-pregnant,"[1]; Foetus, oral",0.46
same,Fold Difference to pregnant,"[1]; Foetus, oral",0.65
same,Mean Conc-dose -ratio,"[1]; Foetus, oral",0.08 uM/(mg/day]
same,TKVF,"[1]; Foetus, oral",1.40
same,CDR fold difference to non-pregnant,[1]; [12],1.00
same,TKVF,[1]; [13],1.87
same,95% percentile (Conc-dose-ratio),"[1]; Non-Pregnant, oral",0.33
same,Fold Difference to non-pregnant,"[1]; Non-Pregnant, oral",1.00
same,Mean Conc-dose -ratio,"[1]; Non-Pregnant, oral",0.18 uM/(mg/day]
same,TKVF,"[1]; Non-Pregnant, oral",1.87
same,CDR fold difference to non-pregnant,[1]; Pregnant population,0.70
same,CDR fold difference to pregnant,[1]; [15],1.00
same,TKVF,[1]; [16],2.64
same,95% percentile (Conc-dose-ratio),"[1]; Pregnant, oral",0.33
same,Fold Difference to non-pregnant,"[1]; Pregnant, oral",0.70
same,Fold Difference to pregnant,"[1]; Pregnant, oral",1.00
same,Mean Conc-dose -ratio,"[1]; Pregnant, oral",0.12 uM/(mg/day]
same,TKVF,"[1]; Pregnant, oral",2.64
CC1(C)C(C=C(Cl)Cl)C1C(=O)OC(C#N)c1cccc(Oc2ccccc2)c1 (stereo not drawn) [Cypermethrin],developmental NOAEL,[9]; DNT study,15 mg/kg bw per day
same,NOAEL,"rats; 15-day intact adult male rat assay, decreased body weight gain",6 mg/kg bw per day
same,reproductive NOAEL,"rats; two multigeneration rat studies, decreased survival of pups at birth",10 mg/kg bw per day
same,offspring NOAEL,rats; [17],10 mg/kg bw per day
same,parental NOAEL,rats; [17],10 mg/kg bw per day
O=CCCCC=O [Glutaraldehyde],Chronic Dietary RfD,[5]; ref EPA,Chronic Dietary RfD set by EPA (0.16 mg/kg/day)
same,Exposure risk (DART risk classification),"[2]; Cosmetic, 0.1% in body lotion, dermal, ref Supplementary Data Sheet 1",Low Risk
same,highest dose tested without evidence of developmental toxicity,rats; two developmental toxicity studies in the rat,50 mg/kg/day and 68 mg/kg/day
same,Diffusivity Dermis,[7]; optimised based on [10],1.00E-07 cm^2/s
same,Diffusivity Stratum Corneum,[7]; optimised based on [10],1.00E-09 cm^2/s
same,Diffusivity Viable Epidermis,[7]; optimised based on [10],5.00E-08 cm^2/s
same,Partition Coefficient Stratum Corneum/Water,[7]; optimised based on [10],2.30
same,Partition Coefficient Viable Epidermis/Water,[7]; optimised based on [10],3.00
same,DART Hazard Call,[3]; [11],Non Toxic
same,Aqueous Solubility,[8]; ref [7],167.2 mg/mL
same,Renal Clearance,[4],6.185 L/h
Nc1ccc(NCCO)c([N+](=O)[O-])c1 [HC Red 3],NOAEL for maternal toxicity,[9],200 mg/kg/day
same,Exposure risk (DART risk classification),[2],Low Risk
same,Diffusivity Dermis,[7]; optimised based on [11],1.00E-08 cm^2/s
same,Diffusivity Stratum Corneum,[7]; optimised based on [11],1.00E-08 cm^2/s
same,Diffusivity Vehicle,[7]; optimised based on [11],1.00E-05 cm^2/s
same,Diffusivity Viable Epidermis,[7]; optimised based on [11],1.00E-10 cm^2/s
same,Partition Coefficient Stratum Corneum/Water,[7]; optimised based on [11],1.50
same,Intrinsic Liver Clearance,[10],248.1 L/h
same,DART Hazard Call,[3],Non Toxic
same,Renal Clearance,[4],4.496 L/h
O=C(O)c1ccccc1O [Salicylate],MoS,[5],Used safely in cosmetic products. Existent consumer risk assessment from the SCCS. MoS >50
same,TKVF,[1]; [13],1.96
same,TKVF,"[1]; Non-Pregnant, dermal, formulation Sodium salicylate",1.52
same,TKVF,"[1]; Non-Pregnant, oral, formulation Acetyl salicylic acid",1.96
same,TKVF,"[1]; Non-Pregnant, oral, formulation Sodium salicylate",1.06
same,TKVF,[1]; [16],2.34
same,TKVF,"[1]; Pregnant, oral, formulation Acetyl salicylic acid",2.34
CC1=C(/C=C/C(C)=C/C=C/C(C)=C/C(=O)O)C(C)(C)CCC1 [all-tr-Retinoic Acid],95% percentile (Conc-dose-ratio),[1]; [18],0.00556
same,Fold Difference to non-pregnant,[1]; [18],0.55
same,Fold Difference to pregnant,[1]; [18],0.71
same,Mean Conc-dose -ratio,[1]; [18],0.005 uM/(mg/day]
same,TKVF,[1]; [18],1.06
same,95% percentile (Conc-dose-ratio),[1]; [19],0.00249
same,Mean Conc-dose -ratio,[1]; [19],0.0015 uM/(mg/day]
same,TKVF,[1]; [19],1.66
same,95% percentile (Conc-dose-ratio),[1]; [20],0.02
same,Fold Difference to non-pregnant,[1]; [20],1.00
same,Mean Conc-dose -ratio,[1]; [20],0.010 uM/(mg/day]
same,TKVF,[1]; [20],2.14
same,95% percentile (Conc-dose-ratio),[1]; [21],0.0108
same,Fold Difference to non-pregnant,[1]; [21],0.77
same,Fold Difference to pregnant,[1]; [21],1.00
same,Mean Conc-dose -ratio,[1]; [21],0.007 uM/(mg/day]
same,TKVF,[1]; [21],1.47
COc1ccc(C(=O)c2ccccc2)c(O)c1 [2-Hydroxy-4-methoxybenzophenone],MoS,[5],Used safely in cosmetic products. Existent consumer risk assessment from the SCCS. MoS 38.
same,Exposure risk (DART risk classification),"[2]; Cosmetic, 6% in sunscreen, dermal, ref Supplementary Data Sheet 1",Low Risk
same,DART Hazard Call,[3]; [11],Non Toxic
same,95% percentile (Conc-dose-ratio),"[1]; Non-Pregnant, dermal",0.000717
same,Mean Conc-dose -ratio,"[1]; Non-Pregnant, dermal",0.00025 uM/(mg/day]
same,TKVF,"[1]; Non-Pregnant, dermal",2.84
